Values of other authors as cited in patent USRE30496E, “Tripeptide derivatives with central nervous system activity and preparation thereof” (Ayerst, McKenna & Harrison, Ltd., priority 1979, dated 1981).

What was measured:
[1] = test system: behavioral effects of (3,4-dihydroxyphenyl)-L-alanine (L-DOPA); conditions: literature (Plotnikoff 1971; Friedman 1973)
effects of oxotremorine = conditions: literature (Plotnikoff 1972)
mice = conditions: literature (Plotnikoff 1973)
monkeys = conditions: literature (Plotnikoff 1973)
[2] = in vivo

## H-L-prolyl-L-leucyl-glycinamide [H--Pro--Leu--Gly--NH2]
[1]
  potentiation of the behavioral effects of L-DOPA: potentiates the behavioral effects
Effects of oxotremorine
  antagonism of the effects of oxotremorine: antagonizes the effects of oxotremorine
mice
  reversal of the sedative effects of deserpidine: reverses the sedative effects of deserpidine
monkeys
  reversal of the sedative effects of deserpidine: reverses the sedative effects of deserpidine
[2]
  first step in the inactivation: proteolytic cleavage of the Pro-Leu bond
